# Measured values as given in patent US12077503B2, “Substituted cyclic amides and their use as herbicides” (FMC CORPORATION, priority 2015, dated 2024).
# Tests used:
# Type in all cases: in vivo
# [1] = system: Kochia (Kochia scoparia); test: Test A preemergence
# Summary of the method: (§1)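 Greenhouse, ~10 d after spray; visual injury vs untreated controls, 0 = no effect, 100 = complete control. Preemergence: directed soil spray over planted seeds. Postemergence: plants 2–10 cm, 1–2 leaf stage. Loam/sand blend. Compound in non-phytotoxic solvent with surfactant.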
# [2] = system: barnyardgrass (Echinochloa crus-galli); test: Test A preemergence
# Summary of the method: as §1
# [3] = system: giant foxtail (Setaria faberii); test: Test A preemergence
# Summary of the method: as §1
# [4] = system: pigweed (Amaranthus retroflexus); test: Test A preemergence; conditions: preemergence
# [5] = system: ragweed (common ragweed, Ambrosia elatior); test: Test A preemergence; conditions: preemergence
# Summary of the method: as §1
# [6] = system: ryegrass, Italian (Italian ryegrass, Lolium multiflorum); test: Test A preemergence; conditions: preemergence
# Summary of the method: as §1
# [7] = system: Galium (catchweed bedstraw, Galium aparine); test: Test A postemergence; conditions: postemergence, 0 to 100 scale (0 no effect, 100 complete control)
# Summary of the method: as §1
# [8] = system: Kochia (Kochia scoparia); test: Test A postemergence; conditions: postemergence, 0 to 100 scale (0 no effect, 100 complete control)
# Summary of the method: as §1
# [9] = system: barnyardgrass (Echinochloa crus-galli); test: Test A postemergence; conditions: postemergence, 0 to 100 scale (0 no effect, 100 complete control)
# Summary of the method: as §1
# [10] = system: blackgrass (Alopecurus myosuroides); test: Test A postemergence; conditions: postemergence, 0 to 100 scale (0 no effect, 100 complete control)
# Summary of the method: as §1
# [11] = system: corn (Zea mays); test: Test A postemergence; conditions: postemergence, 0 to 100 scale (0 no effect, 100 complete control)
# Summary of the method: as §1
# [12] = system: giant foxtail (Setaria faberii); test: Test A postemergence; conditions: postemergence, 0 to 100 scale (0 no effect, 100 complete control)
# Summary of the method: as §1
# [13] = system: pigweed (Amaranthus retroflexus); test: Test A postemergence; conditions: postemergence, 0 to 100 scale (0 no effect, 100 complete control)
# Summary of the method: as §1
# [14] = system: ragweed (common ragweed, Ambrosia elatior); test: Test A postemergence; conditions: postemergence, 0 to 100 scale (0 no effect, 100 complete control)
# Summary of the method: as §1
# [15] = system: ryegrass, Italian (Italian ryegrass, Lolium multiflorum); test: Test A postemergence; conditions: postemergence, 0 to 100 scale (0 no effect, 100 complete control)
# Summary of the method: as §1
# [16] = system: wheat (Triticum aestivum); test: Test A postemergence; conditions: postemergence, 0 to 100 scale (0 no effect, 100 complete control)
# Summary of the method: as §1
# [17] = system: barnyardgrass (Echinochloa crus-galli); test: Test B flooded paddy test; conditions: Flood, 250 g ai/ha; 0 to 100 scale where 0 is no effect and 100 is complete control; 13 to 15 d
# Summary of the method: (§2)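 2-leaf plants; pots flooded 3 cm over soil; cpd added to paddy water; depth held; greenhouse 13–15 d; visual rating vs controls, 0 = no effect, 100 = complete control.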
# [18] = system: ducksalad (Heteranthera limosa); test: Test B flooded paddy test; conditions: Flood, 250 g ai/ha; 0 to 100 scale where 0 is no effect and 100 is complete control; 13 to 15 d
# Summary of the method: as §2
# [19] = system: rice (Oryra sativa); test: Test B flooded paddy test; conditions: Flood, 250 g ai/ha; 0 to 100 scale where 0 is no effect and 100 is complete control; 13 to 15 d
# Summary of the method: as §2
# [20] = system: sedge, umbrella (small-flower umbrella sedge, Cyperus difformis); test: Test B flooded paddy test; conditions: Flood, 250 g ai/ha; scale of 0 to 100 where 0 is no effect and 100 is complete control
# Summary of the method: as §2
# [21] = 125 g ai/ha, Preemergence, visual injury after approximately 10 d, 0 to 100 scale where 0 is no effect and 100 is complete control
# [22] = 500 g ai/ha, preemergence, 0 to 100 scale, 0 = no effect, 100 = complete control
# [23] = 125 g ai/ha, visual rating after approx. 10 d, 0 to 100 scale where 0 is no effect and 100 is complete control
# [24] = 500 g ai/ha, 0 to 100 scale, 0 = no effect, 100 = complete control
# [25] = 125 g ai/ha, visual injury after approximately 10 d
# [26] = 500 g ai/ha, visual injury, approx. 10 d
# [27] = 125 g ai/ha, visual rating after approx. 10 d
smiles,measurement,setting,value
CN1CC(c2ccc(C(C)(F)F)cc2)C(C(=O)Nc2ccccc2F)C1=O (stereo not drawn) [Compound 691],"Plant response rating, Kochia",[1]; [21],80
same,"Plant response rating, Kochia",[1]; [22],90
same,"Plant response rating, Barnyardgrass",[2]; [21],90
same,"Plant response rating, Barnyardgrass",[2]; [22],90
same,"Plant response rating, Foxtail, Giant",[3]; [21],90
same,"Plant response rating, Foxtail, Giant",[3]; [22],90
same,"Plant response rating, Pigweed",[4]; [23],70
same,"Plant response rating, Pigweed",[4]; [24],80
same,"Plant response rating, Ragweed",[5]; [23],60
same,"Plant response rating, Ragweed",[5]; [24],90
same,"Plant response rating, Ryegrass, Italian",[6]; [23],50
same,"Plant response rating, Ryegrass, Italian",[6]; [24],60
same,"Plant response rating, Galium",[7]; [25],70
same,"Plant response rating, Galium",[7]; [26],70
same,"Plant response rating, Kochia",[8]; [25],70
same,"Plant response rating, Kochia",[8]; [26],80
same,"Plant response rating, Barnyardgrass",[9]; [27],80
same,"Plant response rating, Barnyardgrass",[9]; [26],80
same,"Plant response rating, Blackgrass",[10]; [27],50
same,"Plant response rating, Blackgrass",[10]; [26],60
same,"Plant response rating, Corn",[11]; [25],60
same,"Plant response rating, Corn",[11]; [26],90
same,"Plant response rating, Foxtail, Giant",[12]; [25],80
same,"Plant response rating, Foxtail, Giant",[12]; [26],80
same,"Plant response rating, Pigweed",[13]; [25],40
same,"Plant response rating, Pigweed",[13]; [26],70
same,"Plant response rating, Ragweed",[14]; [25],50
same,"Plant response rating, Ragweed",[14]; [26],60
same,"Plant response rating, Ryegrass, Italian",[15]; [25],50
same,"Plant response rating, Ryegrass, Italian",[15]; [26],60
same,"Plant response rating, Wheat",[16]; [25],50
same,"Plant response rating, Wheat",[16]; [26],60
same,"Plant response rating, Barnyardgrass",[17],70
same,"Plant response rating, Ducksalad",[18],95
same,"Plant response rating, Rice",[19],25
same,"Sedge, Umbrella plant response rating",[20],0
